US20060035927A1, “Calcilytic compounds” (SmithKline Beecham Corporation, priority 1999, published 2006)

Columns and labels:
[1] = system: human osteoclasts; experiment: Human osteoclast-mediated bone resorption assay; assay type: cell-based; details: 24 hours, bovine cortical bone particles
Experimental: The isolation of disaggregated human osteoclasts from fresh osteoclastoma tissue and the in vitro human osteoclast resorption assay were performed according to James, J. Bone Min. Res., Vol. 11, pp. 1453-1460. Briefly, human osteoclasts were seeded onto bovine cortical bone particles with compound or vehicle for 24 hours at 37° C. The culture media were then removed and the levels of the carboxy-terminal peptide of the α1 chain of human type I collagen were quantified as a biochemical readout of resorption, using a competitive binding enzyme linked immunosorbant assay (ELISA) (19) (Osteometer A/S, Rodovre, Denmark). The results are expressed as percent inhibition of resorption compared to supernatants derived from osteoclasts cultured in vehicle without inhibitor. IC50 values are determined from the resultant dose response curves.

[2] = system: osteopenic ovx rats; experiment: Ovariectomized rat Study 2: calcilytic plus/minus 17β estradiol, histology and histomorphometry of proximal tibia; assay type: in vivo; details: Study 2, proximal tibia, static histomorphometry, vs ovx group
Experimental: Animals were prepared and monitored as described above. […] Dosing continued for 5 weeks at which point the animals were sacrificed and the tibiae were collected for histological analysis. Bone samples were dehydrated through increasing concentrations of ethanol, defatted in acetone and embedded in methyl methacrylate (Polysciences, Inc., Warrington, Pa.). Longitudinal undecalcified sections (5 μm) sections of the proximal tibial were cut on a Leica microtome (S[…]); the tissue blocks had been prestained with Villanueva stain. Histomorphometric analysis was carried out using an Osteomeasure system (OsteoMetrics Incorpotated), without knowledge of group allocation. Measurements within the tibial metaphysis were restricted to a mean tissue area of approximately 8 mm^2 beginning 1 mm below the growth plate. Primary measurements included area of bone and marrow (mm^2), bone area (mm^2), perimeter of bone (mm), single and double-labelled perimeter (sL.Pm, dL.Pm, m), osteoid perimeter (O.Pm, m) and eroded perimeter (Er.P, m). […] Statistical analysis was assessed by a two sided t-test.

[3] = system: osteopenic ovx rats; experiment: Ovariectomized rat Study 1: dynamic histomorphometry of proximal tibia; assay type: in vivo
Source text: (§1) Seven month old virgin Sprague Dawley female rats were subjected to bilateral ovariectomy or sham surgery and the animals then held for a period of three months to allow the development of osteopenia. At that time a single sham group (n=10) and three groups of ovariectomized (ovx) animals (n=10-14) were assigned. The ovx groups were selected such that there was no significant difference in bone mineral density (“BMD”) of the lumbar spine, proximal tibia or distal femur between groups. Groups consisted of sham and ovx controls treated with dose vehicle (20% aqueous encapsin) and ovx groups treated with either N-[(2R-Hydroxy-3-[(3-chloro-2-cyano)phenoxy-propyl]-1,1-dimethyl-2-(2-naphthyl)ethyl amine hydrochloride (“calcilytic administered”) ([…] body weight daily p.o.) or rat PTH 1-34 (5 ug/kg body weight daily s.c.).
(§2) During the study blood samples were drawn for determination of circulating PTH and osteocalcin. BMD was determined by DXA (QDR4500 Hologic, Waltham, Mass.) prior to treatment and at weeks 4 and 8. At term tibiae were removed for histological analysis. All animals received tetracycline 10 and 3 days prior to the start of dosing and calcein (10 mg/kg) 10 and 3 days prior to sacrifice.
Bone samples were dehydrated through increasing concentrations of ethanol, defatted in acetone and embedded in methyl methacrylate (Polysciences, Inc., Warrington, Pa.). Longitudinal undecalcified sections (5 μm) sections of the proximal tibial were cut on a Leica microtome (SM2500S); the tissue blocks had been prestained with Villanueva stain. Histomorphometric analysis was carried out using an Osteomeasure system (OsteoMetrics Incorpotated), without knowledge of group allocation. Measurements within the tibial metaphysis were restricted to a mean tissue area of approximately 8 mm^2 beginning 1 mm below the growth plate. Primary measurements included area of bone and marrow (mm^2), bone area (mm^2), perimeter of bone (mm), single and double-labelled perimeter (sL.Pm, dL.Pm, m), osteoid perimeter (O.Pm, m) and eroded perimeter (Er.P, m). Derived indices included trabecular bone volume (% Tb.Ar), trabecular number (Th.N, mm^−1), trabecular thickness (Th.Th, μm), trabecular separation (Th.Sp, μm), bone formation rate, surface referent (BFR/Tb.Pm, μm^3/μm^2/year), BFR/Tb.Ar (bone area referent, %/year), BFR/B.Ar (tissue referent, %/year) and mineral apposition rate (MAR, μm/day), and percent labelled perimeter (% Lp). Statistical analysis was assessed by a two sided t-test.

[4] = system: osteopenic ovx rats; experiment: Ovariectomized rat Study 1: bone mineral density by DXA; assay type: in vivo; details: Study 1, ovx rats, 5 ug/kg daily PTH s.c., eight weeks
Source text: as §1, §2

[5] = rats, PTH dose of 80 ug/kg, published studies; cited from earlier work
[6] = s.c. infusion 40 and 80 ug/kg/day over periods of 2 hours or more; cited from earlier work
[7] = system: primary human osteoblasts; experiment: Osteoblast cAMP production, primary human osteoblasts; assay type: cell-based; details: compound 0.1, 1 and 10 uM, PTH 40 ng/ml positive control
Experimental: (§3) cAMP accumulation was measured in both human TF274 osteoblastic cells (derived by immortalization of human bone marrow stromal cells) see James, supra, and primary human osteoblasts derived from explants of trabecular bone as described in Beresford, Biochim. Biophys. Acta, Vol. 801, pp. 58-65 ([…]). cAMP levels in cell samples were measured using a non-radioactive protocol (Amersham kit). Alkaline phosphatase activity was determined using the standard colorimetric method as described previously in Gowen, Arth. Rheum., Vol. 31, pp. 1500-1507 (1988). N-[(2R-Hydroxy-3-[(3-chloro-2-cyano)phenoxy-propyl]-1,1-dimethyl-2-(2-naphthyl)ethyl amine hydrochloride was tested at 0.1, 1 and 10 uM. PTH 40 ng/ml was used as a positive control.

[8] = cited from earlier work
[9] = system: plasma PTH; experiment: Ovariectomized rat Study 1: circulating PTH levels (RIA); assay type: in vivo; details: Study 1, 5 ug/kg PTH s.c.
Source text: as §1, §2
Timed plasma samples were collected relative to administration of compound or PTH. PTH 1-34 was measured by RIA (Nichols Institute Diagnostics, San Juan Capistrano, Calif.). The concentrations of compound in the plasma were quantified by LC/MS/MS (limit of detection 10 ng/ml).

[10] = system: human TF274 osteoblastic cells; experiment: Osteoblast cAMP production, TF274 cells; assay type: cell-based; details: compound 0.1, 1 and 10 uM, PTH 40 ng/ml positive control
Experimental: as §3

[11] = Study 1, proximal tibia, vs ovx control, calcilytic 100 mmol/kg p.o. or PTH 5 ug/kg s.c. daily
[12] = clinical, 0.4 ug/kg, 30 minutes after dosing

3,1,1-bis (2-methylpropyl)-4,7,10-trioxo-2,5,6,8,9,12-hexaazatridecanedioate [reference compound]
IC50 [1]: 900 nM

C[C@]12CC[C@@H]3c4ccc(O)cc4CC[C@H]3[C@@H]1CC[C@@H]2O [estradiol, 17β estradiol, reference compound]
% trabecular area (% Tb.Ar.) / ovx-induced bone loss [2]: not significantly restored

PTH: parathyroid hormone; rat PTH 1-34 s.c. in the rat studies, PTH 40 ng/ml as positive control in osteoblast assays [reference compound]
bone formation and resorption, net bone gain or loss ([3]; Study 1, overall outcome): increased both resorption and formation, but formation exceeded resorption, resulting in increased bone mass
bone formation: % labeled perimeter (% L.Pm.) [3, 11]: elevated above the ovx control level
bone formation: % osteoid perimeter (% Os.Pm) [3, 11]: elevated above the ovx control level
bone mass (BMD) in the proximal tibia [4]: returned to pre-ovx levels
circulating level of PTH [5]: 5,000-14,000 pg/ml
adverse effects of prolonged PTH infusion [6]: rapid loss in body weight, hypercalcemia and histological abnormalities in the skeleton
cAMP levels (basal) [7]: two-fold increase
bone mass ([8]; clinical studies, approximate doses of 0.4-0.8 ug/kg body weight): increased bone mass
circulating levels of PTH 1-34 [8, 12]: approximately 90 pmol/l
increase in circulating PTH levels [8, 12]: three-fold increase
time of return of PTH levels to baseline after dosing [9]: 2 to 4 h
PTH levels in animals given PTH ([9]; compared with calcilytic-dosed animals): in the same range
cAMP levels (basal) [10]: two-fold increase
